Consider 37 compounds from patent US10047096B2, “Substituted pyridobenzodiazepinone-derivatives and use thereof” (Bayer Pharma Aktiengesellschaft, priority 2014, dated 2018).

Counter-ions that a name gives are not always drawn.

A word on the IC50: it is the concentration that gives 50% inhibition. Low readings indicate greater potency in that assay, high ones weaker potency in that assay.

Sequence of human PDGFRβ (P09619 561-1106): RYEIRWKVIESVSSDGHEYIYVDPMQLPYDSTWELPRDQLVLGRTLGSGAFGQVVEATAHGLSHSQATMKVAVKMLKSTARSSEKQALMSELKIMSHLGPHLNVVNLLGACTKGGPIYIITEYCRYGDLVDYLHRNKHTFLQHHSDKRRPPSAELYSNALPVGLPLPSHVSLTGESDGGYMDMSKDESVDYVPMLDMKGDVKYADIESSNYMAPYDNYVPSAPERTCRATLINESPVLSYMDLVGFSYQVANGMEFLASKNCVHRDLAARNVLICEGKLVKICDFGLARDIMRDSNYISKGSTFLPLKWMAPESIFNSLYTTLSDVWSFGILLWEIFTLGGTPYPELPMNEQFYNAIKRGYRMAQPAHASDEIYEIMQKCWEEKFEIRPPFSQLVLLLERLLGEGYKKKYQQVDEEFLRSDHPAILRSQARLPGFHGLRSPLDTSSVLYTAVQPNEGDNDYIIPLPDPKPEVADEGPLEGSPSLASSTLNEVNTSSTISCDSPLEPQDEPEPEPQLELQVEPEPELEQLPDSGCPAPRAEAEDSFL

The target of one experiment is human PDGFRβ (Homo sapiens (Human), UniProt P09619). Briefly: PDGFRβ kinase assay (PDGFRβ-HTRF). Format: biochemical. To be noted: 10 μM ATP; some mean values from multiple determinations. On the procedure:
The PDGFRβ-inhibitory activity of the inventive compounds was determined in the PDGFRβ-HTRF assay described hereinafter.
The kinase used was a recombinant fusion protein composed of N-terminal GST and a C-terminal fragment of human PDGFRβ (amino acids R561-L1106), expressed in baculovirus-infected insect cells (Sf9) and purified by affinity chromatography (from ProQinase GmbH, Freiburg, Germany). The substrate used for the kinase reaction was biotinylated poly-Glu,Tyr (4:1) copolymer (from Cisbio Bioassays, Codolet, France).
For the assay, 50 nl of a 100-fold concentrated solution of the test substance in DMSO was pipetted into a black “low-volume 384 well” microtitre plate (from Greiner Bio-One, Frickenhausen, Germany), then 2 μl of a solution of PDGFRβ in assay buffer [50 mM HEPES/NaOH pH 7.5, 10 mM MgCl2, 2.5 mM dithiothreitol, 0.01% (v/v) Triton-X100 (from Sigma)] was added and the mixture was incubated for 15 min, in order to enable preliminary binding of the substance to the enzyme before the kinase reaction. […] The resulting mixture was incubated at 22° C. for 1 h to allow formation of a complex of the biotinylated phosphorylated substrate and the detection reagents.
Subsequently, the amount of the phosphorylated substrate was evaluated by measuring the resonance energy transfer from the PT66-Eu chelate to the streptavidin-XL665. […] The IC50 values were calculated by a 4-parameter fit.
In general terms: In TR-FRET formats the signal depends on donor and acceptor labels being close together.
The compound `CCn1ccc(CNCc2ccc3c(c2)NC(=O)c2c(Nc4cc(O)ccc4C)ccnc2N3)n1` [Example 103] showed an IC50 of 3.46 nM.
On the same count and under the same terms, the result for `Cc1ccc(O)cc1Nc1ccnc2c1C(=O)Nc1cc(CNCCF)ccc1N2` [Example 126] reads 2.24 nM.
On the same count and under the same terms, with `Cc1ccc(O)cc1Nc1ccnc2c1C(=O)Nc1cc(CN3CCN(CCO)CC3)ccc1N2` [Example 44, 8-{[4-(2-Hydroxyethyl)piperazin-1-yl]methyl}-4-[(5-hydroxy-2-methylphenyl)amino]-6,11-dihydro-5H-pyrido[2,3-b][1,5]benzodiazepin-5-one] the figure was 19.8 nM; with `CCC(CC)NCc1ccc2c(c1)NC(=O)c1c(Nc3cc(O)ccc3C)ccnc1N2` [Example 155], 2.33 nM.
The same measure, in the same setting: the result for `Cc1ccc(O)cc1Nc1ccnc2c1C(=O)Nc1cc(CNc3ccc4[nH]cnc4c3)ccc1N2` [Example 104] reads 12.2 nM; that for `N#Cc1ccc2c(c1)NC(=O)c1c(Nc3cc(O)c(F)c(F)c3)ccnc1N2` [Example 8, 4-[(3,4-Difluoro-5-hydroxyphenyl)amino]-5-oxo-6,11-dihydro-5H-pyrido[2,3-b][1,5]benzodiazepine-8-carbonitrile], 4.76 nM; that for `CCN(CC)Cc1ccc2c(c1)NC(=O)c1c(Nc3cc(O)ccc3C)ccnc1N2` [Example 39, 8-[(Diethylamino)methyl]-4-[(5-hydroxy-2-methylphenyl)amino]-6,11-dihydro-5H-pyrido[2,3-b][1,5]benzodiazepin-5-one], 1.86 nM.
`Cc1ccc(O)cc1Nc1ccnc2c1C(=O)Nc1cc(CNCCN3CCN(C)CC3)ccc1N2` [Example 109] had a 50% inhibitory concentration (IC50) of 3.55 nM.
Still for that read-out and setting: the result for `Cc1cc(F)c(Nc2ccnc3c2C(=O)Nc2cc(C(N)=O)ccc2N3)cc1O` [Example 80, 4-[(2-Fluoro-5-hydroxy-4-methylphenyl)amino]-5-oxo-6,11-dihydro-5H-pyrido[2,3-b][1,5]benzodiazepine-8-carboxamide] reads 7.44 nM; that for `CCCOC1CCCN(Cc2ccc3c(c2)NC(=O)c2c(Nc4cc(O)c(C)cc4F)ccnc2N3)C1` (racemic) [Example 68, rac-4-[(2-Fluoro-5-hydroxy-4-methylphenyl)amino]-8-[(3-propoxypiperidin-1-yl)methyl]-6,11-dihydro-5H-pyrido[2,3-b][1,5]benzodiazepin-5-one], 1.85 nM.
As to `Cc1cc(F)c(Nc2ccnc3c2C(=O)Nc2cc(CNC4CC(F)(F)C4)ccc2N3)cc1O` [Example 189, 8-{[(3,3-Difluorocyclobutyl)amino]methyl}-4-[(2-fluoro-5-hydroxy-4-methylphenyl)amino]-6,11-dihydro-5H-pyrido[2,3-b][1,5]benzodiazepin-5-one], it took 2.01 nM to reach half-maximal inhibition (IC50).
Same read-out and setting: with `Cc1ccc(O)cc1Nc1ccnc2c1C(=O)Nc1cc(CNCC3CCC(=O)N3C)ccc1N2` (stereo not shown) [Example 137] the figure was 1.68 nM; with `Cc1cc(F)c(Nc2ccnc3c2C(=O)Nc2cc(C(=O)N4C[C@H](O)C[C@H]4CO)ccc2N3)cc1O` [Example 160, 4-[(2-Fluoro-5-hydroxy-4-methylphenyl)amino]-8-{[(2S,4R)-4-hydroxy-2-(hydroxymethyl)pyrrolidin-1-yl]carbonyl}-6,11-dihydro-5H-pyrido[2,3-b][1,5]benzodiazepin-5-one], 7.25 nM.
For `Cc1ccc(O)cc1Nc1ccnc2c1C(=O)Nc1cc(CNC3CCC3)ccc1N2` [Example 20, 8-[(Cyclobutylamino)methyl]-4-[(5-hydroxy-2-methylphenyl)amino]-6,11-dihydro-5H-pyrido[2,3-b][1,5]benzodiazepin-5-one], the IC50 was 2.89 nM.
Same read-out and setting: the result for `CCN(Cc1ccc2c(c1)NC(=O)c1c(Nc3cc(O)c(C)cc3F)ccnc1N2)CC(C)O` (single isomer, unassigned; ent-8) [Example 205, ent-8-{[Ethyl(2-hydroxypropyl)amino]methyl}-4-[(2-fluoro-5-hydroxy-4-methylphenyl)amino]-6,11-dihydro-5H-pyrido[2,3-b][1,5]benzodiazepin-5-one (Enantiomer 1)] reads 1.76 nM; that for `Cc1ccc(O)cc1Nc1ccnc2c1C(=O)Nc1cc(CNCCC(F)(F)F)ccc1N2` [Example 115], 3.93 nM.
Consider `COCCCNCc1ccc2c(c1)NC(=O)c1c(Nc3cc(O)ccc3C)ccnc1N2` [Example 129], for which the IC50 worked out at 3.99 nM. This IC50 and that of the compound before are within 1.5-fold of each other.
Same read-out and setting: with `CCOC1CCCN(Cc2ccc3c(c2)NC(=O)c2c(Nc4cc(O)c(C)cc4F)ccnc2N3)C1` (racemic) [Example 67, rac-8-[(3-Ethoxypiperidin-1-yl)methyl]-4-[(2-fluoro-5-hydroxy-4-methylphenyl)amino]-6,11-dihydro-5H-pyrido[2,3-b][1,5]benzodiazepin-5-one] the figure was 2.23 nM; with `Cc1ccc(O)cc1Nc1ccnc2c1C(=O)Nc1cc(CNCc3cccnc3)ccc1N2` [Example 146], 7.56 nM; with `Cc1ccc(O)cc1Nc1ccnc2c1C(=O)Nc1cc(CNCC(C)C)ccc1N2` [Example 152], 4.42 nM.
Still for that read-out and setting: the result for `Cc1ccc(O)cc1Nc1ccnc2c1C(=O)Nc1cc(CNC(C)CN(C)C)ccc1N2` (stereo not shown) [Example 122] reads 3.24 nM; that for `Cc1cc(F)c(Nc2ccnc3c2C(=O)Nc2cc(C(=O)N4CCC(O)CC4)ccc2N3)cc1O` [Example 178, 4-[(2-Fluoro-5-hydroxy-4-methylphenyl)amino]-8-[(4-hydroxypiperidin-1-yl)carbonyl]-6,11-dihydro-5H-pyrido[2,3-b][1,5]benzodiazepin-5-one], 14.8 nM.
Take `Cc1cc(F)c(Nc2ccnc3c2C(=O)Nc2cc(CN4C[C@@H](O)[C@@H](O)C4)ccc2N3)cc1O` [Example 210]: it took 1.03 nM to reach half-maximal inhibition (IC50).
The same measure, in the same setting: with `Cc1cc(F)c(Nc2ccnc3c2C(=O)Nc2cc(CNC(C)C)ccc2N3)cc1O` [Example 48, 4-[(2-Fluoro-5-hydroxy-4-methylphenyl)amino]-8-[(isopropylamino)methyl]-6,11-dihydro-5H-pyrido[2,3-b][1,5]benzodiazepin-5-one] the figure was 1.01 nM; with `Cc1ccc(O)cc1Nc1ccnc2c1C(=O)Nc1cc(CNCc3ccc(Cl)nc3)ccc1N2` [Example 95], 1.95 nM.
Take `CCN(CCN)Cc1ccc2c(c1)NC(=O)c1c(Nc3cc(O)c(C)cc3F)ccnc1N2` [Example 200, 8-{[(2-Aminoethyl)(ethyl)amino]methyl}-4-[(2-fluoro-5-hydroxy-4-methylphenyl)amino]-6,11-dihydro-5H-pyrido[2,3-b][1,5]benzodiazepin-5-one]: inhibition was half-maximal at 0.727 nM (IC50).
Same read-out and setting: the result for `Cc1ccc(O)cc1Nc1ccnc2c1C(=O)Nc1cc(CNC(C)C(C)C)ccc1N2` (stereo not shown) [Example 157] reads 3.4 nM.
On the same count and under the same terms, the result for `Cc1cc(F)c(Nc2ccnc3c2C(=O)Nc2cc(CN4CCCC(O)CC4)ccc2N3)cc1O` (racemic) [Example 62, rac-4-[(2-Fluoro-5-hydroxy-4-methylphenyl)amino]-8-[(4-hydroxyazepan-1-yl)methyl]-6,11-dihydro-5H-pyrido[2,3-b][1,5]benzodiazepin-5-one] reads 1.39 nM.
On the same count and under the same terms, the result for `Cc1ccc(O)cc1Nc1ccnc2c1C(=O)Nc1cc(CN3CCCC3)ccc1N2` [Example 40, 4-[(5-Hydroxy-2-methylphenyl)amino]-8-(pyrrolidin-1-ylmethyl)-6,11-dihydro-5H-pyrido[2,3-b][1,5]benzodiazepin-5-one] reads 1.8 nM; that for `Cc1cc(F)c(Nc2ccnc3c2C(=O)Nc2cc(CN[C@H]4C[C@H](C(=O)O)C4)ccc2N3)cc1O` [Example 195, trans-3-[({4-[(2-Fluoro-5-hydroxy-4-methylphenyl)amino]-5-oxo-6,11-dihydro-5H-pyrido[2,3-b][1,5]benzodiazepin-8-yl}methyl)amino]cyclobutanecarboxylic acid], 1.56 nM; that for `Cc1ccc(O)cc1Nc1ccnc2c1C(=O)Nc1cc(CNCCCOC(C)C)ccc1N2` [Example 149], 1.74 nM.
For the compound `Cc1cc(F)c(Nc2ccnc3c2C(=O)Nc2cc(CN4CCC(O)C(C)(C)C4)ccc2N3)cc1O` (racemic) [Example 166, rac-4-[(2-Fluoro-5-hydroxy-4-methylphenyl)amino]-8-[(4-hydroxy-3,3-dimethylpiperidin-1-yl)methyl]-6,11-dihydro-5H-pyrido[2,3-b][1,5]benzodiazepin-5-one], inhibition was half-maximal at 5.02 nM (IC50).
The same measure, in the same setting: the result for `Cc1ccc(O)cc1Nc1ccnc2c1C(=O)Nc1cc(CNCc3cccc(F)c3F)ccc1N2` [Example 94] reads 3.52 nM; that for `COCCOCCCNCc1ccc2c(c1)NC(=O)c1c(Nc3cc(O)ccc3C)ccnc1N2` [Example 116], 4.75 nM; that for `Cc1ccc(O)cc1Nc1ccnc2c1C(=O)Nc1cc(CNc3ccccc3F)ccc1N2` [Example 147], 52.9 nM.
Same read-out and setting: the result for `Cc1cc(F)c(Nc2ccnc3c2C(=O)Nc2cc(CNC(C)C4CCCCC4)ccc2N3)cc1O` (racemic) [Example 77, rac-8-{[(1-Cyclohexylethyl)amino]methyl}-4-[(2-fluoro-5-hydroxy-4-methylphenyl)amino]-6,11-dihydro-5H-pyrido[2,3-b][1,5]benzodiazepin-5-one] reads 4.9 nM.

Staying with this experiment, now noted: 10 μM ATP; some mean values from multiple determinations; hydrochloride.
For `CCN(CC)Cc1ccc2c(c1)NC(=O)c1c(Nc3cc(O)c(C)cc3F)ccnc1N2` [Example 193, 8-[(Diethylamino)methyl]-4-[(2-fluoro-5-hydroxy-4-methylphenyl)amino]-6,11-dihydro-5H-pyrido[2,3-b][1,5]benzodiazepin-5-one hydrochloride], the IC50 was determined as 3.22 nM. This counts as single-digit nanomolar.
